# Results as given in patent US20110251289A1, “NEW COMPOUNDS FOR THE TREATMENT OF CANCER” (CSIR, priority 2008, published 2011).
# Experiments:
# Format in all cases: cell-based
# [1] = test system: human lymphocytes; test: toxicity to human lymphocytes (IC50); conditions: Lymphocyte
# [2] = test system: HeLa cancer cells; test: activity against HeLa cancer cells (toxicity, IC50)
# [3] = test system: HeLa cells; test: MTT cytotoxicity assay, HeLa cells; conditions: 200 μM, 48 h
# Description: (§1) In addition, when HeLa and MCF cells (breast cancer cells) were exposed to 200 μM pavetamine for 48 h, 30% cell death occurred for HeLa cells and 25% for the MCF cells. The MTT (3-(4,5-dimethyl-2-thiazolyl)-2,5-diphenyl-2H-tetrazolium bromide) assay (Sigma, St Louis, USA) was used to measure the cytotoxicity of pavettamine in these cell lines.
# [4] = test system: Bordetella bronchiseptica; test: growth inhibition of bacterial cells
# Source text: (§2) This selective inhibition of the growth of eukaryotes versus prokaryotes is a useful characteristic of the compound.
# [5] = test system: Actinomyces pyogenes; test: growth inhibition of bacterial cells
# Source text: as §2
# [6] = test system: Staphylococcus intermedius; test: growth inhibition of bacterial cells; conditions: Staphylococcus intermedius (3 strains)
# Source text: as §2
# [7] = test system: Pasteurella haemolytica; test: growth inhibition of bacterial cells
# Source text: as §2
# [8] = test system: Sphingobacterium spritivorum; test: growth inhibition of bacterial cells
# Source text: as §2
# [9] = test system: MCF cells (breast cancer cells); test: MTT cytotoxicity assay, MCF cells; conditions: 200 μM, 48 h
# Description: as §1
# [10] = test system: Penicillium expansum; test: growth inhibition of fungal and yeast cells
# Source text: as §2
# [11] = test system: Rhodotorula mucilaginosa; test: growth inhibition of fungal and yeast cells
# Source text: as §2
# [12] = test system: Debaryomyces hansenii; test: growth inhibition of fungal and yeast cells
# Source text: as §2
# [13] = test system: Aspergillus clavatus; test: growth inhibition of fungal and yeast cells
# Source text: as §2
# [14] = test system: Selenastrum capricornumtum; test: algal growth inhibition test; conditions: 1 mM to 0.063 mM, 72 hrs exposure, optical density relative to control
# Description: The algal (Selenastrum capricornumtum) growth inhibition test involves exposing the unicellular algae to the toxicant for 72 hrs, under defined conditions: at a temperature of 24° C. and in a test facility fitted with a cool white fluorescent light with a light intensity of ±4000 lux. The test facility is free of vapour, odours and dust which may be toxic to the algae.
# Growth inhibition is measured as a reduction in growth rate relative to the control and is determined in terms of optical density. Definitive tests (testing serial dilutions) are carried out. The percentage growth inhibition in each test is usually reported as Effect or the 72 hr EC20 or EC50.
structure (smiles),measurement,setting,value
"NC[C@@H](O)C[C@@H](O)CNC[C@H](O)C[C@H](O)CN [pavettamine, (2S,4R,8R,10S)-1,11-diamino-6-aza-undecane-2,4,8,10-tetraol]",IC50,[1],2 µg/mL
same,times more toxic to HeLa cancer cells than to human lymphocytes,[2]; HeLa cancer cells versus human lymphocytes,10 ×
same,IC50,"[2]; Homo sapiens, HeLa",0.2 µg/mL
same,"cell death, HeLa cells",[3],30%
same,inhibitory activity towards growth of bacterial cells,[4],no inhibitory activity
same,inhibitory activity towards growth of bacterial cells,[5],no inhibitory activity
same,inhibitory activity towards growth of bacterial cells,[6],no inhibitory activity
same,inhibitory activity towards growth of bacterial cells,[7],no inhibitory activity
same,inhibitory activity towards growth of bacterial cells,[8],no inhibitory activity
same,"cell death, MCF cells",[9],25%
same,inhibitory activity towards growth of fungal and yeast cells,[10],inhibitory activity
same,inhibitory activity towards growth of fungal and yeast cells,[11],inhibitory activity
same,inhibitory activity towards growth of fungal and yeast cells,[12],inhibitory activity
same,inhibitory activity towards growth of fungal and yeast cells,[13],inhibitory activity
same,growth inhibition of algae,[14],≥ 98%
